{"source": "patent US20260013504A1", "about": "“HERBICIDAL MIXTURE, HERBICIDAL COMPOSITION, METHOD, USE, AND KITS FOR CONTROLLING UNDESIRABLE VEGETATION” (ADAMA AGAN LTD., priority 2022, published 2026)", "assay_type_in_all_cases": "in vivo", "key": {"Aegilops tauschii": {"test_system": "Aegilops tauschii", "assay": "Pot experiment, soil treatment, control of Aegilops tauschii (fresh weight, Colby)", "details": "mixtures: both AIs at these rates, after 35 days"}, "Lithospermum arvense": {"test_system": "Lithospermum arvense", "assay": "Pot experiment, soil treatment, control of Lithospermum arvense (fresh weight, Colby)"}, "Galium aparine": {"test_system": "Galium aparine", "assay": "Pot experiment, soil treatment, control of Galium aparine (fresh weight, Colby)"}, "Bromus japonicus": {"test_system": "Bromus japonicus", "assay": "Pot experiment, soil treatment, control of Bromus japonicus (fresh weight, Colby)", "details": "mixtures: both AIs at these rates, after 35 days"}, "Solanum nigrum": {"test_system": "Solanum nigrum", "assay": "Pot experiment (glass greenhouse), soil treatment, control of Solanum nigrum (fresh weight, Colby)"}, "Lolium multiflorum Lamk": {"test_system": "Lolium multiflorum Lamk", "assay": "Pot experiment, soil treatment, control of Lolium multiflorum Lamk (fresh weight, Colby)", "details": "mixtures: both AIs at these rates, after 35 days"}, "[1]": {"details": "g ai/ha: pyroxasulfone 11.25, fluorochloridone 31.25, aclonifen 150, diflufenican 14.0625, terbutryn 140.625"}, "[2]": {"details": "g ai/ha: pyroxasulfone 22.5, fluorochloridone 62.5, aclonifen 300, diflufenican 28.125, terbutryn 281.25"}, "[3]": {"details": "g ai/ha: pyroxasulfone 45, fluorochloridone 125, aclonifen 600, diflufenican 56.25, terbutryn 562.5"}, "[4]": {"details": "g ai/ha: pyroxasulfone 90, fluorochloridone 250, aclonifen 1200, diflufenican 112.5, terbutryn 1125"}, "[5]": {"details": "g ai/ha: pyroxasulfone 180, fluorochloridone 500, aclonifen 2400, diflufenican 225, terbutryn 2250"}, "[6]": {"details": "g ai/ha: pyroxasulfone 360, fluorochloridone 1000, aclonifen 4800, diflufenican 450, terbutryn 4500"}}, "data": [{"smiles": "Nc1c([N+](=O)[O-])ccc(Oc2ccccc2)c1Cl", "note": "[aclonifen, 2-chloro-6-nitrio-3-phenoxyaniline]", "values": [{"measurement": "Measured fresh weight inhibition rate (%)", "setting": "Aegilops tauschii; [1]", "value": 6.1, "unit": "%"}, {"measurement": "Measured fresh weight survival rate (%) - E", "setting": "Aegilops tauschii; [1]", "value": 93.9, "unit": "%"}, {"measurement": "Measured fresh weight inhibition rate (%)", "setting": "Aegilops tauschii; [2]", "value": 25.0, "unit": "%"}, {"measurement": "Measured fresh weight survival rate (%) - E", "setting": "Aegilops tauschii; [2]", "value": 75.0, "unit": "%"}, {"measurement": "Measured fresh weight inhibition rate (%)", "setting": "Aegilops tauschii; [3]", "value": 26.2, "unit": "%"}, {"measurement": "Measured fresh weight survival rate (%) - E", "setting": "Aegilops tauschii; [3]", "value": 73.8, "unit": "%"}, {"measurement": "Measured fresh weight inhibition rate (%)", "setting": "Aegilops tauschii; [4]", "value": 70.1, "unit": "%"}, {"measurement": "Measured fresh weight survival rate (%) - E", "setting": "Aegilops tauschii; [4]", "value": 29.9, "unit": "%"}, {"measurement": "Measured fresh weight inhibition rate (%)", "setting": "Aegilops tauschii; [5]", "value": 74.4, "unit": "%"}, {"measurement": "Measured fresh weight survival rate (%) - E", "setting": "Aegilops tauschii; [5]", "value": 25.6, "unit": "%"}, {"measurement": "Measured fresh weight inhibition rate (%)", "setting": "Aegilops tauschii; [6]", "value": 97.6, "unit": "%"}, {"measurement": "Measured fresh weight survival rate (%) - E", "setting": "Aegilops tauschii; [6]", "value": 2.4, "unit": "%"}, {"measurement": "Measured fresh weight survival rate (%) - E", "setting": "Lithospermum arvense; 150 g ai/ha", "value": 43.5, "unit": "%"}, {"measurement": "Measured fresh weight survival rate (%) - E", "setting": "Lithospermum arvense; 300 g ai/ha", "value": 13.0, "unit": "%"}, {"measurement": "Measured fresh weight survival rate (%) - E", "setting": "Lithospermum arvense; 600 g ai/ha", "value": 1.4, "unit": "%"}, {"measurement": "Measured fresh weight survival rate (%) - E", "setting": "Lithospermum arvense; 1200 g ai/ha", "value": 0.0, "unit": "%"}, {"measurement": "Measured fresh weight survival rate (%) - E", "setting": "Lithospermum arvense; 2400 g ai/ha", "value": 0.0, "unit": "%"}, {"measurement": "inhibition at 150 g/ha", "setting": "Lithospermum arvense; Buglossoides arvensis, soil, 150 g ai/ha, read-out: Measured fresh weight inhibition rate (%)", "value": 56.5, "unit": "%"}, {"measurement": "inhibition at 300 g/ha", "setting": "Lithospermum arvense; Buglossoides arvensis, soil, 300 g ai/ha, read-out: Measured fresh weight inhibition rate (%)", "value": 87, "unit": "%"}, {"measurement": "inhibition at 600 g/ha", "setting": "Lithospermum arvense; Buglossoides arvensis, soil, 600 g ai/ha, read-out: Measured fresh weight inhibition rate (%)", "value": 98.6, "unit": "%"}, {"measurement": "inhibition at 1200 g/ha", "setting": "Lithospermum arvense; Buglossoides arvensis, soil, 1200 g ai/ha, read-out: Measured fresh weight inhibition rate (%)", "value": 100, "unit": "%"}, {"measurement": "inhibition at 2400 g/ha", "setting": "Lithospermum arvense; Buglossoides arvensis, soil, 2400 g ai/ha, read-out: Measured fresh weight inhibition rate (%)", "value": 100, "unit": "%"}, {"measurement": "Measured fresh weight survival rate (%) - E", "setting": "Galium aparine; 150 g ai/ha", "value": 79.5, "unit": "%"}, {"measurement": "Measured fresh weight survival rate (%) - E", "setting": "Galium aparine; 300 g ai/ha", "value": 63.0, "unit": "%"}, {"measurement": "Measured fresh weight survival rate (%) - E", "setting": "Galium aparine; 600 g ai/ha", "value": 9.6, "unit": "%"}, {"measurement": "Measured fresh weight survival rate (%) - E", "setting": "Galium aparine; 1200 g ai/ha", "value": 0.0, "unit": "%"}, {"measurement": "Measured fresh weight survival rate (%) - E", "setting": "Galium aparine; 2400 g ai/ha", "value": 0.0, "unit": "%"}, {"measurement": "inhibition at 150 g/ha", "setting": "Galium aparine; Galium aparine, soil, 150 g ai/ha, read-out: Measured fresh weight inhibition rate (%)", "value": 20.5, "unit": "%"}, {"measurement": "inhibition at 300 g/ha", "setting": "Galium aparine; Galium aparine, soil, 300 g ai/ha, read-out: Measured fresh weight inhibition rate (%)", "value": 37, "unit": "%"}, {"measurement": "inhibition at 600 g/ha", "setting": "Galium aparine; Galium aparine, soil, 600 g ai/ha, read-out: Measured fresh weight inhibition rate (%)", "value": 90.4, "unit": "%"}, {"measurement": "inhibition at 1200 g/ha", "setting": "Galium aparine; Galium aparine, soil, 1200 g ai/ha, read-out: Measured fresh weight inhibition rate (%)", "value": 100, "unit": "%"}, {"measurement": "inhibition at 2400 g/ha", "setting": "Galium aparine; Galium aparine, soil, 2400 g ai/ha, read-out: Measured fresh weight inhibition rate (%)", "value": 100, "unit": "%"}, {"measurement": "Measured fresh weight inhibition rate (%)", "setting": "Bromus japonicus; [1]", "value": 45.4, "unit": "%"}, {"measurement": "Measured fresh weight survival rate (%) - E", "setting": "Bromus japonicus; [1]", "value": 54.6, "unit": "%"}, {"measurement": "Measured fresh weight inhibition rate (%)", "setting": "Bromus japonicus; [2]", "value": 86.6, "unit": "%"}, {"measurement": "Measured fresh weight survival rate (%) - E", "setting": "Bromus japonicus; [2]", "value": 13.4, "unit": "%"}, {"measurement": "Measured fresh weight inhibition rate (%)", "setting": "Bromus japonicus; [3]", "value": 100.0, "unit": "%"}, {"measurement": "Measured fresh weight survival rate (%) - E", "setting": "Bromus japonicus; [3]", "value": 0.0, "unit": "%"}, {"measurement": "Measured fresh weight inhibition rate (%)", "setting": "Bromus japonicus; [4]", "value": 100.0, "unit": "%"}, {"measurement": "Measured fresh weight survival rate (%) - E", "setting": "Bromus japonicus; [4]", "value": 0.0, "unit": "%"}, {"measurement": "Measured fresh weight inhibition rate (%)", "setting": "Bromus japonicus; [5]", "value": 100.0, "unit": "%"}, {"measurement": "Measured fresh weight survival rate (%) - E", "setting": "Bromus japonicus; [5]", "value": 0.0, "unit": "%"}, {"measurement": "Measured fresh weight survival rate (%) - E", "setting": "Solanum nigrum; 150 g ai/ha", "value": 87.1, "unit": "%"}, {"measurement": "Measured fresh weight survival rate (%) - E", "setting": "Solanum nigrum; 300 g ai/ha", "value": 82.7, "unit": "%"}, {"measurement": "Measured fresh weight survival rate (%) - E", "setting": "Solanum nigrum; 600 g ai/ha", "value": 69.4, "unit": "%"}, {"measurement": "Measured fresh weight survival rate (%) - E", "setting": "Solanum nigrum; 1200 g ai/ha", "value": 56.9, "unit": "%"}, {"measurement": "Measured fresh weight survival rate (%) - E", "setting": "Solanum nigrum; 2400 g ai/ha", "value": 26.3, "unit": "%"}, {"measurement": "inhibition at 150 g/ha", "setting": "Solanum nigrum; Solanum nigrum, soil, 150 g ai/ha, read-out: Measured fresh weight inhibition rate (%)", "value": 12.9, "unit": "%"}, {"measurement": "inhibition at 300 g/ha", "setting": "Solanum nigrum; Solanum nigrum, soil, 300 g ai/ha, read-out: Measured fresh weight inhibition rate (%)", "value": 17.3, "unit": "%"}, {"measurement": "inhibition at 600 g/ha", "setting": "Solanum nigrum; Solanum nigrum, soil, 600 g ai/ha, read-out: Measured fresh weight inhibition rate (%)", "value": 30.6, "unit": "%"}, {"measurement": "inhibition at 1200 g/ha", "setting": "Solanum nigrum; Solanum nigrum, soil, 1200 g ai/ha, read-out: Measured fresh weight inhibition rate (%)", "value": 43.1, "unit": "%"}, {"measurement": "inhibition at 2400 g/ha", "setting": "Solanum nigrum; Solanum nigrum, soil, 2400 g ai/ha, read-out: Measured fresh weight inhibition rate (%)", "value": 73.7, "unit": "%"}, {"measurement": "Measured fresh weight inhibition rate (%)", "setting": "Lolium multiflorum Lamk; [1]", "value": 89.1, "unit": "%"}, {"measurement": "Measured fresh weight survival rate (%) - E", "setting": "Lolium multiflorum Lamk; [1]", "value": 10.9, "unit": "%"}, {"measurement": "Measured fresh weight inhibition rate (%)", "setting": "Lolium multiflorum Lamk; [2]", "value": 96.4, "unit": "%"}, {"measurement": "Measured fresh weight survival rate (%) - E", "setting": "Lolium multiflorum Lamk; [2]", "value": 3.6, "unit": "%"}, {"measurement": "Measured fresh weight inhibition rate (%)", "setting": "Lolium multiflorum Lamk; [3]", "value": 99.5, "unit": "%"}, {"measurement": "Measured fresh weight survival rate (%) - E", "setting": "Lolium multiflorum Lamk; [3]", "value": 0.5, "unit": "%"}, {"measurement": "Measured fresh weight inhibition rate (%)", "setting": "Lolium multiflorum Lamk; [4]", "value": 100.0, "unit": "%"}, {"measurement": "Measured fresh weight survival rate (%) - E", "setting": "Lolium multiflorum Lamk; [4]", "value": 0.0, "unit": "%"}, {"measurement": "Measured fresh weight inhibition rate (%)", "setting": "Lolium multiflorum Lamk; [5]", "value": 100.0, "unit": "%"}, {"measurement": "Measured fresh weight survival rate (%) - E", "setting": "Lolium multiflorum Lamk; [5]", "value": 0.0, "unit": "%"}, {"measurement": "Measured fresh weight inhibition rate (%)", "setting": "Lolium multiflorum Lamk; [6]", "value": 100.0, "unit": "%"}, {"measurement": "Measured fresh weight survival rate (%) - E", "setting": "Lolium multiflorum Lamk; [6]", "value": 0.0, "unit": "%"}]}]}
